# Source: the NIST ThermoML archive (doi:10.1016/j.fluid.2006.07.016)
# ± gives the expanded uncertainty stated by the source.
# What was measured:
# [1] = 298.2 K; 101.33 kPa; Liquid
# [2] = refractive index (Na D-line) (dimensionless); settings: 298.2 K; 101.33 kPa; Liquid; Standard Abbe refractometry
mass density [1],refractive index [2],SMILES
799.7 ± 0.5 kg/m3,1.3839 ± 0.0007,CCCO [propan-1-ol]
882.5 ± 0.4 kg/m3,1.3828 ± 0.0007,CCCOC(C)=O [propyl ethanoate]
